Results as given in patent US20120020940A1, “ANTIMICROBIAL PEPTIDES” (Helmholtz Zentrum München Deutsches Forschungszentrum Für …, priority 2008, published 2012).
No end group written: not given here.

Assays:
Cladosporium herbarum = experiment: MIC, antifungal in-vitro inhibition assay (Example 2); type: cell-based; conditions: Table 1
Experimental: (§1) In-vitro inhibition assays were performed in sterile flat-bottom 96-well plates (Greiner bio-one, Frickenhausen). Antimicrobial peptides were dissolved in 0.01% acetic acid containing 0.2% BSA (500 μg/ml), filter sterilized and stored at −20° C. For inhibition assays dilutions of peptides ranging from 5 to 200 μg/ml were prepared and 10 μl (antibacterial assay) or 20 μl (antifungal assay) of each concentration was loaded per well.
(§2) Spores of fungi were collected by water washes of sporulating cultures grown on 2% malt extract agar and spore concentration was determined by microscopy. The concentration of the spores was adjusted to 1.5-2×10^3 spores/ml in 2% malt extract medium and 80 μl of fungal spores were added per well. The final peptide concentrations used in the fungal inhibition assays were […]. After overnight incubation at room temperature the plate were put on a rotary shaker (300 rpm) for further two days to ensure consistantly growth. Antifungal effects of the peptides were determined by a microplate reader (Alternaria, Fusarium) at OD590 nm or by visual screening of the plates (Botrytis, Cladosporium).
(§3) The lowest peptide concentration leading to complete inhibition of bacterial growth or spore germination/mycelial growth (minimal inhibition concentration, MIC) was determined for each organism-peptide combination. For each peptide concentration two identical inhibition assays were performed.

Botrytis cinerea = experiment: as above; type: cell-based; conditions: Table 1
Experimental: as §1, §2, §3

Alternaria alternata = experiment: as above; type: cell-based; conditions: Table 1
Experimental: as §1, §2, §3

[1] = tested on: Pectobacterium carotovorum sub. carotovorum; conditions: Pectobacterium carotovorum sub. carotovorum; overnight 25° C.; Table 1
[2] = tested on: Pseudomonas syringae pv. tomato; conditions: Pseudomonas syringae pv. tomato; overnight 25° C.; Table 1
[3] = tested on: Pseudomonas syringae pv. syringae; conditions: Pseudomonas syringae pv. syringae; overnight 25° C.; Table 1
Xanthomonas vesicatoria [4] = conditions: Xanthomonas vesicatoria; overnight 25° C.; Table 1
[5] = tested on: Clavibacter michiganensis sub. michiganensis; conditions: overnight 25° C., Table 1
human erythrocytes = experiment: Hemolytic activity, hemoglobin release; type: cell-based; conditions: 45 min at 37° C., Table 3
Experimental: The hemolytic activity of the peptides was evaluated by determining hemoglobin release of suspensions of fresh human erythrocytes at 405 nm. Human red blood cells were centrifuged and washed three times with Tris-buffer (10 mM Tris, 150 mM NaCl, pH 7.4). Eighty μl of human red blood cells (1.5×10^9/ml) were added to 20 μl of the peptides solution (peptides dissolved in 0.2% BSA, 0.01% HAc) in 96-well plates (Greiner bio-one, Frickenhausen) and incubated for 45 min at 37° C. The endconcentration of the peptides were 0, 20, 50, 100 and 200 μg/ml. After centrifugation (1500×g, 5 min, 20° C.) 30 μl aliquots of the supernatant were transferred to 96-well plates containing 100 μl water. Hemolysis was measured by absorbance at 405 nm with a microplate reader. 100% hemolysis were determined in 2% SDS. The hemolysis percentage was calculated using the following equation: % hemolysis=[(Abs405 nm in the peptide solution−Abs405 nm in peptides solvent)/(Abs405 nm in 2% SDS−Abs405 nm in peptide solvent)]×100.
Further hemolytic activities of the various peptides of the present invention may be taken from the table depicted in example 3, last row indicated as “Hemolytic activity”. In connection therewith, however, the concentrations are stated where at least 50% hemolysis was observed.

Pseudomonas corrugata [6] = conditions: Pseudomonas corrugata; overnight 25° C.; Table 1
[7] = tested on: Clavibacter michiganensis; experiment: MIC and lethal concentration (Example 3); type: cell-based; conditions: Table 2; for MIC (>90% inhibition): 1-2 days at 25° C.; for LC, lethal concentration (100% inhibition): at least 4 days of incubation
Experimental: as §1
(§4) Bacteria colonies from overnight agar plate cultures were resuspended into 5 ml LB-medium or HPG-medium (OD600 nm=0.08-0.1) and diluted into LB-medium/HPG-medium (1:100). 90 μl of this suspension containing about 10^5-10^6 CFU/ml of tested bacteria were added to each well resulting in final peptide concentrations of 0, 0.5, 1, 2, 5, 10, and 20 μg/ml. […] The lowest concentration, in which there is no observable growth (>90% inhibition) is referred to as minimal inhibitory concentration (MIC). […] For each peptide concentration two identical inhibition assays were performed.

[8] = tested on: Pectobacterium carotovorum; experiment: MIC and lethal concentration (Example 3); type: cell-based; conditions: Table 2; for MIC (>90% inhibition): 1-2 days at 25° C.; for LC, lethal concentration (100% inhibition): at least 4 days of incubation
Experimental: as §1, §4

Pseudomonas corrugata [9] = experiment: MIC and lethal concentration (Example 3); type: cell-based; conditions: Table 2; for MIC (>90% inhibition): 1-2 days at 25° C.; for LC, lethal concentration (100% inhibition): at least 4 days of incubation
Experimental: as §1, §4

[10] = tested on: Pseudomonas syringae pv. syringae; experiment: MIC and lethal concentration (Example 3); type: cell-based; conditions: Table 2; for MIC (>90% inhibition): 1-2 days at 25° C.; for LC, lethal concentration (100% inhibition): at least 4 days of incubation
Experimental: as §1, §4

Xanthomonas vesicatoria [11] = experiment: MIC and lethal concentration (Example 3); type: cell-based; conditions: Table 2; for MIC (>90% inhibition): 1-2 days at 25° C.; for LC, lethal concentration (100% inhibition): at least 4 days of incubation
Experimental: as §1, §4

[12] = tested on: Pseudomonas syringae pv. tomato; experiment: MIC and lethal concentration (Example 3); type: cell-based; conditions: Table 2; for MIC (>90% inhibition): 1-2 days at 25° C.; for LC, lethal concentration (100% inhibition): at least 4 days of incubation
Experimental: as §1, §4

Row | Substance | MIC (>90% inhibition) [7] | LC, lethal concentration (100% inhibition) [7] | MIC (>90% inhibition) [8] | LC, lethal concentration (100% inhibition) [8] | MIC (>90% inhibition) (Pseudomonas corrugata [9]) | MIC (>90% inhibition) [10] | LC, lethal concentration (100% inhibition) [10] | MIC (>90% inhibition) (Xanthomonas vesicatoria [11]) | LC, lethal concentration (100% inhibition) (Xanthomonas vesicatoria [11]) | MIC (>90% inhibition) [12] | LC, lethal concentration (100% inhibition) [12] | LC, lethal concentration (100% inhibition) (Pseudomonas corrugata [9]) | other results
1 | LKALRKALKHLA-NH2 [SP12, LKALRKALKHLA -NH2] | – | – | – | – | – | – | – | – | – | – | – | – | Minimal inhibition concentration (MIC) for complete inhibition of spore germination/mycelial growth (Cladosporium herbarum): 20 µg/mL; Minimal inhibition concentration (MIC) for complete inhibition of spore germination/mycelial growth (Botrytis cinerea): >100 µg/mL; Minimal inhibition concentration (MIC) for complete inhibition of spore germination/mycelial growth (Alternaria alternata): >100 µg/mL; Minimal inhibition concentration (MIC) for complete inhibition of bacterial growth [1]: >40 µg/mL; Minimal inhibition concentration (MIC) for complete inhibition of bacterial growth [2]: 2.5 µg/mL; Minimal inhibition concentration (MIC) for complete inhibition of bacterial growth [3]: 10 µg/mL; Minimal inhibition concentration (MIC) for complete inhibition of bacterial growth (Xanthomonas vesicatoria [4]): 20 µg/mL; Minimal inhibition concentration (MIC) for complete inhibition of bacterial growth [5]: >40 µg/mL; Hemolytic activity, concentration where at least 25% hemolysis was observed (human erythrocytes): >200 µg/mL; Minimal inhibition concentration (MIC) for complete inhibition of bacterial growth (Pseudomonas corrugata [6]): >40 µg/mL
2 | LLKALKKLLKKLL-NH2 [SP9] | – | – | – | – | – | – | – | – | – | – | – | – | Minimal inhibition concentration (MIC) for complete inhibition of spore germination/mycelial growth (Cladosporium herbarum): 40 µg/mL; Minimal inhibition concentration (MIC) for complete inhibition of spore germination/mycelial growth (Botrytis cinerea): >100 µg/mL; Minimal inhibition concentration (MIC) for complete inhibition of spore germination/mycelial growth (Alternaria alternata): >100 µg/mL; Minimal inhibition concentration (MIC) for complete inhibition of bacterial growth [1]: >40 µg/mL; Minimal inhibition concentration (MIC) for complete inhibition of bacterial growth [2]: 10 µg/mL; Minimal inhibition concentration (MIC) for complete inhibition of bacterial growth [3]: 10 µg/mL; Minimal inhibition concentration (MIC) for complete inhibition of bacterial growth (Xanthomonas vesicatoria [4]): 5 µg/mL; Minimal inhibition concentration (MIC) for complete inhibition of bacterial growth [5]: 10 µg/mL; Hemolytic activity, concentration where at least 25% hemolysis was observed (human erythrocytes): 50 µg/mL; Minimal inhibition concentration (MIC) for complete inhibition of bacterial growth (Pseudomonas corrugata [6]): >40 µg/mL
3 | LRALAKALKHKL-NH2 [SP11, LRALAKALKHKL -NH2] | – | – | – | – | – | – | – | – | – | – | – | – | Minimal inhibition concentration (MIC) for complete inhibition of spore germination/mycelial growth (Cladosporium herbarum): 20 µg/mL; Minimal inhibition concentration (MIC) for complete inhibition of spore germination/mycelial growth (Botrytis cinerea): >100 µg/mL; Minimal inhibition concentration (MIC) for complete inhibition of spore germination/mycelial growth (Alternaria alternata): >100 µg/mL
4 | LRFAKKALKKLF-NH2 [SP10-3] | 2.5/2.5 μg/ml | 2.5/2.5 μg/ml | >10/>10 μg/ml | >10/>10 μg/ml | 1.0 µg/mL | 0.25 µg/mL | 2.5 µg/mL | 2.5/2.5 μg/ml | 2.5/2.5 μg/ml | 0.25/0.25 μg/ml | 0.25/0.25 μg/ml | – | –
5 | LRFARRALRRLF-NH2 [SP10-9] | 1.0/1.0 μg/ml | 1.0/1.0 μg/ml | 2.5 µg/mL | 5.0 µg/mL | 0.5 µg/mL | 0.25 µg/mL | 2.5 µg/mL | 1.0 µg/mL | 2.5 µg/mL | 0.25 µg/mL | 0.5 µg/mL | 2.5 µg/mL | –
6 | LRFIKKILKKLI-NH2 [SP10-4] | 0.25/0.25 μg/ml | 0.25/0.25 μg/ml | 2.5/2.5 μg/ml | 2.5/2.5 μg/ml | 2.5/2.5 μg/ml | 0.25 µg/mL | 0.5 µg/mL | 0.1 µg/mL | 0.25 µg/mL | 1.0/1.0 μg/ml | 1.0/1.0 μg/ml | 2.5/2.5 μg/ml | –
7 | LRFLKKILKKLF-NH2 [SP10-1] | 1.0 µg/mL | 2.5 µg/mL | 2.5 µg/mL | 5.0 µg/mL | 2.5/2.5 μg/ml | 2.5/2.5 μg/ml | 2.5/2.5 μg/ml | 2.5/2.5 μg/ml | 2.5/2.5 μg/ml | 1.0/1.0 μg/ml | 1.0/1.0 μg/ml | 2.5/2.5 μg/ml | –
8 | LRFLRRILRRLL-NH2 [SP10-8] | 0.5/0.5 μg/ml | 0.5/0.5 μg/ml | 2.5 µg/mL | 5.0 µg/mL | 0.5 µg/mL | 0.5/0.5 μg/ml | 0.5/0.5 μg/ml | 0.5/0.5 μg/ml | 0.5/0.5 μg/ml | 1.0/1.0 μg/ml | 1.0/1.0 μg/ml | 1.0 µg/mL | –
9 | LRIIKKILKKLI-NH2 [SP10-5] | 0.5/0.5 μg/ml | 0.5/0.5 μg/ml | 2.5 µg/mL | 10 µg/mL | 0.5 µg/mL | 0.5/0.5 μg/ml | 0.5/0.5 μg/ml | 0.25 µg/mL | 0.5 µg/mL | 0.25 µg/mL | 0.5 µg/mL | 2.5 µg/mL | –
10 | LRIIRRILRRLI-NH2 [SP10-6] | 2.5/2.5 μg/ml | 2.5/2.5 μg/ml | 2.5 µg/mL | 5.0 µg/mL | 2.5/2.5 μg/ml | 2.5/2.5 μg/ml | 2.5/2.5 μg/ml | 1.0/1.0 μg/ml | 1.0/1.0 μg/ml | 1.0/1.0 μg/ml | 1.0/1.0 μg/ml | 2.5/2.5 μg/ml | –
11 | LRILRRLLRRLF-NH2 [SP10-7] | 5.0/5.0 μg/ml | 5.0/5.0 μg/ml | >10/>10 μg/ml | >10/>10 μg/ml | 2.5/2.5 μg/ml | >10/>10 μg/ml | >10/>10 μg/ml | 5.0s/5.0^ μg/ml | 5.0s/5.0^ μg/ml | 0.5 µg/mL | 1.0 µg/mL | 2.5/2.5 μg/ml | –
